The values that follow come from patent US20060240405A1, “Method for assaying replication of hbv and testing ... drugs” (priority 2002, published 2006).

The term IC50 denotes the concentration that inhibits the measured activity by half.

For this test, the system named is wild type HBV genomes population. Nature of the test: Phenotypic drug susceptibility assay: Huh7 cells transfected with type-I vector clones, Southern blot of intracellular replicative HBV DNA intermediates. As to conditions: Hepatitis B virus, Huh-7, read-out: IC50 (intracellular replicative HBV DNA intermediates).

Regarding `Nc1ccn([C@@H]2CS[C@H](CO)O2)c(=O)n1` [lamivudine, β-L-(−)-2′,3′-dideoxy-3′-thiacytidine], the IC50 is < 100 nM.
